Where a SMILES comes first, the peptide text is derived from it.

In general, logP refers to a log measure of how a compound divides between an organic and an aqueous phase. Read a low logP as lower lipophilicity. `Nc1ccc(CNC(=O)C2CCCN2C(=O)C(N)C(C2CCCCC2)C2CCCCC2)cn1` (stereo unspecified): the logP was 4.61.
In turn, `COc1ccc(C2Cc3cc(Cl)ccc3N(CCN(C)C)C(=O)C2OC(C)=O)cc1` (stereo unspecified) registered a logP of 4.2.
Under `O=[N+]([O-])c1ccc(CSc2ncnc3c(C4OC(CO)C(O)C4O)n[nH]c23)cc1` (stereo unspecified) stands 0.5.
For the compound `CC(C)(C)[N+]([O-])=Cc1ccccc1O`, the logP was 1.3.
Compound `CC1=CCCC(C)C12CCC(C(C)(C)O)C2` (stereo unspecified) returned a logP of 4.59.
For `NC(N)=NCCCNC(=O)[C@@H]1CCCCN1C(=O)[C@@H](CC1CCCCC1)NCC(=O)O`, the logP was -0.1.
In turn, `Cc1ccc(C)c(-n2nnnc2N)c1` came in with a log partition coefficient (logP) of 1.45.
Compound `Cc1oc2ccc3ccc(=O)oc3c2c1C` showed a logP of 2.97.
On to `Cc1cccc(Nc2ccncc2S(=O)(=O)NC(=NC#N)NC(C)C)c1`, for which the logP came out at 1.86.
As for `CCNC(=NC#N)NS(=O)(=O)c1cnccc1NC1CCCCC1`, the logP came out at 0.94.
With `COc1ccc(C2Cc3cc(C(F)(F)F)ccc3N(CCN(C)C)C(=O)C2SC(C)=O)cc1` (stereo unspecified), the logP came out at 5.4.
`Cc1ccc2c(c1)OCN(CCO[N+](=O)[O-])C2=O` had a log partition coefficient (logP) of 2.44.
In turn, `NC1=NCC(COc2ccccc2[N+](=O)[O-])O1` (stereo unspecified) registered a logP of 0.8.
Under `O=C(O)CCCCCON=C(c1cccc(C(F)(F)F)c1)c1cccnn1` stands 3.22; under `COCCOC(=O)C1=C(C)NC(C)=C(C(=O)OC(C)C)C1c1cccc2c1OCO2` (stereo unspecified), 3.94.
In turn, `CCCNC(=O)c1[nH]cc(-c2ccc(Cl)cc2)c1N1CCOCC1` came in with a log partition coefficient (logP) of 4.2.
Turning to `CC(=O)Nc1ccc(F)cc1F`, the logP is 1.5.
For the compound `CCOP(=O)(OCC)C(C)(C)[N+]([O-])=Cc1ccccn1`, the log partition coefficient (logP) was determined as 0.68.
Regarding `COc1cc(OC)c(Cl)cc1N`, the logP is 1.45.
`CC(C)=CC1C(C(=O)OCc2cccc(S(C)(=O)=O)c2)C1(C)C` (stereo unspecified) registered a lipophilicity (logP) of 3.83.
With `Cc1coc2nc3oc(=O)cc(C)c3cc12`, the log partition coefficient (logP) turned out to be 1.64.
With `CC(=O)C(Cc1ccccc1)=C(C)O` the figure was 1.89.
`Cc1cc2cc3ccc(=O)oc3c(C)c2o1` displayed a logP of 2.93.
Consider `Cc1cccc(-n2nnnc2N)c1`, for which the logP was 1.24.
Regarding `CCCC1C(=O)N(CCN(C)C)c2ccccc2CC1c1ccc(OC)cc1` (stereo unspecified), the logP amounted to 5.6.
On to `Cc1c2oc(=O)ccc2c(C)c2c(C)coc12`, for which the logP turned out to be 3.35.
`Cc1cc(C(=O)O)ccc1[N+](=O)[O-]` gave a logP of 2.42.
In turn, `CCCCCCCNCc1ccc(C)cc1` displayed a lipophilicity (logP) of 5.12.
Turning to `O=C(Cc1c(Cl)cc(Cl)cc1Cl)Oc1coc(CO)cc1=O`, the logP worked out at 1.92.
`O=C(CC1CCc2cc(Br)cc3[nH]c(=O)c(=O)n1c23)Nc1ccccc1` (stereo unspecified) yielded a log partition coefficient (logP) of 2.78.
For `CCOc1cc2ncnc(Nc3cccc(I)c3)c2cc1OCC`, the lipophilicity (logP) came to 4.62.
For `CC(C)N(CCC(C(N)=O)c1ccccc1Cl)C(C)C` (stereo unspecified), the logP worked out at 2.83.
With `CCC(C)C(NC(=O)C(CCCNC(=N)N)NC(C)=O)C(=O)NC(Cc1ccccc1)C(N)=O` (stereo not drawn) (Ac-Arg-Ile-Phe-NH2; configuration not given here), the log partition coefficient (logP) was -0.04.
On to `O=c1cc(-c2ccc(Cl)cc2)oc2ccccc12`, for which the logP worked out at 3.89.
Regarding `CCCCON=C(C)c1cccc(Oc2nc(OC)cc(OC)n2)c1C(=O)OC`, the log partition coefficient (logP) stood at 4.11.
For `O=C1NC(c2ccccc2)(c2ccccc2)C(=O)N1CO`, the lipophilicity (logP) was 2.23.
Under `OCCCNc1[nH]cnc2ncnc1-2` stands 0.11; under `CN(C)C1=NC(=O)N(c2ccc(Cl)cc2)C1`, 1.6.
For the compound `O=c1cc(-c2ccccc2)on1-c1ccc(Cl)cc1`, the logP is 4.1.
Compound `CCCSc1cccc2nc(N)nc(N)c12` had a lipophilicity (logP) of 2.85.
Compound `CN1CCN(Cc2cnccc2Cl)C1=N[N+](=O)[O-]` gave a log partition coefficient (logP) of 0.26.
With `CCOC(=O)Nc1ccc2cc3ccc4c(c3nc2c1)COC(=O)N4` the figure was 2.
Compound `Cc1cccc(Cc2cnc[nH]2)c1C` registered a logP of 2.68.
With `CNc1ccc(-c2cn3cc(SC)ccc3n2)cc1`, the log partition coefficient (logP) was 3.9.
Under `CCNC(=S)NS(=O)(=O)c1cnccc1NC1CCCCC1` stands 3.1.
As to `Cc1cccc(C)c1OCCN(C)C`, the logP was found to be 2.74.
`COC(=O)C(C)NP(=O)(OCC1C=CC(n2cc(C)c(=O)[nH]c2=O)O1)Oc1cccc(Br)c1` (stereo unspecified) registered a logP of 1.64.
Consider `OCC1OC(Oc2ccc(F)cc2)C(O)C(O)C1O` (stereo unspecified), for which the logP is -0.42.
With `O=C1N=C(N2CCOCC2)CN1Cc1c(Cl)cccc1Cl`, the logP was 1.3.
Take `Cc1cc(=O)[nH]c2c1cc(C)c1occ(C)c12`: the lipophilicity (logP) is 3.13.
With `COc1ccc(-c2ccoc2)cc1CNC1CCCNC1c1ccccc1` (stereo unspecified) the figure was 4.2; with `COc1ccc(CCNCC(O)COc2ccc(OCc3ncc[nH]3)cc2)cc1OC` (stereo unspecified), 2.6; with `COCC(O)Cn1c([N+](=O)[O-])nc(Br)c1Br` (stereo unspecified), 1.02.
With `Cc1ccc(CO)c(C=NNC(=O)c2ccc(O)cc2)c1O` the figure was 2.56; with `Cc1ccc(CO)c(C=NNC(=O)c2ccc([N+](=O)[O-])cc2)c1O`, 3.03; with `CC(C)C1(C)N=C(c2ncc3ccccc3c2C(=O)O)NC1=O` (stereo unspecified), 1.81.
Compound `C=C(Cl)CON=C(C)c1cccc(Oc2nc(OC)cc(OC)n2)c1C(=O)OC` had a log partition coefficient (logP) of 3.63.
`CC(C)NC(=O)N1C(=O)N(C)CC1O` (stereo unspecified) registered a logP of 0.96.
Consider `Fc1cccc(CNc2ncnc3nc[nH]c23)c1`, for which the logP amounted to 2.31.
In the case of `Fc1cncnc1`, the lipophilicity (logP) is -0.03.
Take `CC(C)NCC(O)COc1ccccc1C1CCCCC1` (stereo unspecified): the logP is 3.68.
`NC1=NCC(COc2cccc(C(F)(F)F)c2)O1` (stereo unspecified) had a lipophilicity (logP) of 2.35.
Take `CCON=C(C)c1cccc(Oc2nc(OC)cc(OC)n2)c1C(=O)OC`: the logP was 2.96.
With `CCC(C)C(N)C(=O)NC(Cc1ccc(O)cc1)C(=O)NC(C(=O)NC(C(=O)O)C(C)C)C(C)CC` (stereo unspecified) (H-IYIV-OH; configuration not given here) the figure was -1.09; with `Cn1cc(-c2ccc(Cl)cc2)c(N2CCOCC2)c1`, 4.2; with `Clc1cccc(Oc2c(Cl)cc(Cl)cc2Cl)c1`, 6.05.
Under `Clc1cc(Cl)c2c(c1)Oc1c(ccc(Cl)c1Cl)O2` stands 6.43.
As for `COc1ccc(C2Cc3cc(C(F)(F)F)ccc3N(CCN(C)C)C(=O)C2CC(C)=O)cc1` (stereo unspecified), the lipophilicity (logP) came out at 4.7.
`CC(C)CNC(=O)N1C(=O)N(C)CC1O` (stereo unspecified): the logP came to 1.32.
With `S=C=NCCCCCCCCc1ccccc1` the figure was 5.81; with `NC1=NCC(CN2CCC(C(=O)c3ccccc3)CC2)O1` (stereo unspecified), 1.05.
In turn, `Cc1cccc(C)c1OCC1CN=C(N)O1` (stereo unspecified) yielded a logP of 2.
On to `OCCCNc1ncnc2c1ncn2C1OC(CO)C(O)C1O` (stereo unspecified), for which the lipophilicity (logP) was -0.86.
For the compound `Nc1nnnn1-c1cc(Cl)c(Cl)cc1Cl`, the logP worked out at 2.3.
The compound `O=C(NP(=O)(N1CC1)N1CC1)c1ccccc1` yielded a logP of 0.81.
Consider `CCNc1nc(O)nc(NCC)n1`, for which the lipophilicity (logP) stood at 2.29.
The compound `Cc1ccc(C(=O)OCCCn2ccc(=O)c(O)c2C)cn1` had a logP of 0.28.
With `CCCc1nc(N)nc(N2CCCCC2)n1` the figure was 2.55; with `CCCN(CCC)C1CCc2ccc(O)cc2C1` (stereo unspecified), 3.75; with `Cc1nc2c3c(c(C(=O)N(C)C)cn2c1CO)CCC(c1ccccc1)O3` (stereo unspecified), 1.72.
Under `COC(=O)c1c(N2CCOCC2)c(-c2ccc(Cl)cc2)cn1C(=O)N1CCOCC1` stands 3.1.
The compound `CNS(=O)(=O)c1nnc(NC(C)=O)s1` displayed a logP of 0.49.
`C[C@]12CC[C@@H](O)C[C@@H]1CC[C@@H]1[C@@H]2CC[C@]2(C)[C@@H](O)CC[C@@H]12`: the lipophilicity (logP) is 4.16.
`CC(C)CCCCNc1[nH]cnc2ncnc1-2` showed a logP of 3.61.
Consider `COc1ccc(SC)cc1CNC1CCCNC1c1ccccc1` (stereo unspecified), for which the lipophilicity (logP) amounted to 3.7.
Under `CCCCCCCCCCCCN(C)N=Nc1ccc(C(N)=O)cc1` stands 6.58; under `COc1ccccc1N1CCN(CCNCC(O)CON=C(C2CC2)C2CC2)CC1` (stereo unspecified), 3.21.
`CC(C)CNc1ncnc2c1ncn2C1OC(CO)C(O)C1O` (stereo unspecified) yielded a lipophilicity (logP) of 1.01.
As for `CC(NC(=O)C(N)Cc1c[nH]c2ccccc12)C(=O)NC(C(N)=O)C(C)C` (stereo not drawn) (H-Trp-Ala-Val-NH2; configuration not given here), the logP was 0.4.
Take `Cc1nc2ccccc2c(=O)n1CCC(=O)O`: the log partition coefficient (logP) turned out to be 0.93.
`CCCCCI`: the log partition coefficient (logP) turned out to be 3.62.
With `CC(C)=CCCC(C)=CCCC(=CCCC(C)=CCO)CO` the figure was 4.7; with `Cc1cc2c(o1)c(C)cc1ccc(=O)oc12`, 2.85; with `CCOC(=O)C1=C(C)NC(C)=C(C(=O)OC)C1c1ccc(OC)c(OC)c1` (stereo unspecified), 3.6.
In the case of `CCN(CC)CCSC(=NO)c1noc(-c2ccccc2)n1`, the logP was 3.05.
The compound `CC(=O)c1cc2ccc3cccc4ccc(c1)c2c34` displayed a logP of 4.29.
With `c1ccc(CCCNc2[nH]cnc3ncnc2-3)cc1`, the logP stood at 2.85.
In turn, `N=C(N)Nc1nc(-c2ccc(N)cc2)cs1` registered a logP of 1.08.
For the compound `Nc1nnnn1-c1cc(Cl)ccc1Cl`, the logP is 1.61.
`COc1ccc(C2Cc3cc(SC)ccc3N(CCN(C)C)C(=O)C2OC(C)=O)cc1` (stereo unspecified): the logP is 4.
Under `CCCC(=NOCC)C1=C(O)CC2(CCCC3CCCCC32)OC1=O` (stereo unspecified) stands 5.
As for `O=C(Nc1ncc([N+](=O)[O-])s1)c1ccc(Br)cc1`, the logP turned out to be 3.58.
`CC(C)(C)NCC(O)CON=C(C1CC1)C1CC1` (stereo unspecified) gave a lipophilicity (logP) of 1.84.
Regarding `Clc1cc(Br)cc(Cl)c1N=C1NCCN1`, the logP is 2.46.
`O=C1CCC(=O)N1c1ccc(Cl)c(Cl)c1`: the lipophilicity (logP) is 1.35.
In turn, `CN(c1nc2ccccc2s1)C1CCN(CCCCOc2ccc(F)cc2)CC1` registered a lipophilicity (logP) of 5.37.
`COc1ccc(S(C)(=O)=O)cc1CNC1CCCNC1c1ccccc1` (stereo unspecified) returned a logP of 1.9.
For the compound `Cn1c([N+](=O)[O-])cnc1C1=NOC2CCCCC12` (stereo unspecified), the logP worked out at 2.22.
`Nc1nc(N)c2c(Oc3ccccc3)cccc2n1` showed a logP of 2.78.
Under `O=c1[nH]c(=O)n(Cc2ccc(Cl)cc2Cl)cc1F` stands 1.96; under `Cc1nc2c3c(c(C(=O)NC4CC4)cn2c1C)CCC(c1ccccc1)O3` (stereo unspecified), 4.

Values taken from the OPERA property sets (Mansouri et al. 2018).
